In patent publication US11566057B2, “Long-acting co-agonists of the glucagon and GLP-1 receptors” (Merck Sharp & Dohme Corp., priority 2017, dated 2023):
Numbered stars: 1 amine (or outer) side, 2 acyl side, 3 side chain; on linkers, the order of the positions; unused ones are H or OH. Square brackets hold non-standard residues; d marks the D form. Side chains are listed from the residue outwards. Peptide text beside a SMILES is read from it. * marks the point of attachment. C20 diacid = O=C(O)CCCCCCCCCCCCCCCCCCC(=O)*; Phe(4-CH2NH2) = NCc1ccc(C[C@H](N)C(=O)O)cc1; C18 diacid = O=C(O)CCCCCCCCCCCCCCCCC(=O)*; γGlu = O=C(O)[C@H](CCC(=O)[*:2])N[*:1]; Met(O2) = CS(=O)(=O)CC[C@H](N)C(=O)O; PEG5 = NCCOCCOCCOCCOCCOCCC(=O)O; αMeD = C[C@](N)(CC(=O)O)C(=O)O; AEEA = NCCOCCOCC(=O)O; Aib = CC(C)(N)C(=O)O

Biological target: T1, human GCGR (Homo sapiens, UniProt P47871)
T1 construct: expressed in transfected cells; growth medium holds Blasticidin and Hygromycin
T1 sequence (P47871 26-477): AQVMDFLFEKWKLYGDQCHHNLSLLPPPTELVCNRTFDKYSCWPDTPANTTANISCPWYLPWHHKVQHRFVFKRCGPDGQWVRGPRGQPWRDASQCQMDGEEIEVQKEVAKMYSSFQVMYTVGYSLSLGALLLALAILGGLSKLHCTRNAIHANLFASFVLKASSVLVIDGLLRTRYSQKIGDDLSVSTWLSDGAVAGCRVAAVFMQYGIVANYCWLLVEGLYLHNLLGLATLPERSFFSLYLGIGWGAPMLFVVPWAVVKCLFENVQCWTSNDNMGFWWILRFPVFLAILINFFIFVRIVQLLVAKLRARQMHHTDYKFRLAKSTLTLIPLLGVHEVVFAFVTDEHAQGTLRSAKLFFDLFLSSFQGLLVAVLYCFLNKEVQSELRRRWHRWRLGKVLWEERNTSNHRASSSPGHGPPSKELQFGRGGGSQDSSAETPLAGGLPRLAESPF
Test: cAMP activity assay at the Glucagon receptor (GCGR)
Type: cell-based
Conditions: cells expressing human GCGR, cAMP production; buffer with or without 20% human serum (not stated which); read-out: GCGR EC50 human
Method: Activity of the peptides at the Glucagon receptor (GCGR) and GLP-1 receptor (GLP1R) was measured in a cAMP activity assay.
GCG/GLP-1 receptor co-agonist peptides were dissolved in 100% DMSO (dimethyl sulfoxide) and serially diluted to generate 10 point titrations. The peptide solutions were then transferred into 384-well assay plates (150 nL/well). Assay ready frozen cells expressing human GLP1R or human GCGR were suspended in growth media consisting of DMEM medium (GIBCO®), 10% FBS (GIBCO®), 1×NEAA(GIBCO®), 1×P/S (GIBCO®), 10 ug/mL Blasticidin (GIBCO®) and 200 μg/mL Hygromycin (GIBCO®). […] The cell suspensions (15 μL) were then added to the assay plates containing the peptide solutions (30,000 cells/well for human GCGR; 10,000 cells/well for human GLP1R). The cells were incubated for 1 hour at room temperature in the dark. Production of cAMP was determined using HitHunter™ cAMPXS kits (DiscoverX) following manufacturer protocol. The plates were incubated for overnight at room temperature in the dark. Luminescence was measured using an EnVision Multilabel plate reader (Perkin Elmer). Native GLP-1 and Glucagon (Bachem) are used as control peptides. EC50 values were calculated using uses a 4 parameter logistic fit based on the Levenberg-Marquardt algorithm.

Compound	EC50 [nM]
CC(C)C[C@H](NC(=O)[C@H](Cc1ccc(O)cc1)NC(=O)[C@H](CCC(=O)O)NC(=O)[C@H](CO)NC(=O)[C@H](Cc1ccc(O)cc1)NC(=O)[C@H](CC(=O)O)NC(=O)[C@H](CO)NC(=O)[C@@H](NC(=O)[C@H](Cc1ccccc1)NC(=O)[C@@H](NC(=O)CNC(=O)[C@H](CCC(N)=O)NC(=O)C(C)(C)NC(=O)[C@@H](N)Cc1c[nH]cn1)[C@@H](C)O)[C@@H](C)O)C(=O)N[C@@H](CC(=O)O)C(=O)N[C@@H](CCCCN)C(=O)N[C@@H](CCCNC(=N)N)C(=O)N[C@@H](C)C(=O)N[C@@H](C)C(=O)N[C@@H](CCC(N)=O)C(=O)N[C@@H](CC(=O)O)C(=O)N[C@@H](Cc1ccccc1)C(=O)N[C@H](C(=O)N[C@@H](CCCCNC(=O)COCCOCCNC(=O)COCCOCCNC(=O)CC[C@H](NC(=O)CCCCCCCCCCCCCCCCC(=O)O)C(=O)O)C(=O)N[C@@H](Cc1c[nH]c2ccccc12)C(=O)N[C@@H](CC(C)C)C(=O)N[C@@H](CCS(C)(=O)=O)C(=O)N[C@@H](CC(=O)O)C(=O)N[C@H](C(N)=O)[C@@H](C)O)C(C)C [TP700] (H-H[Aib]QGTFTSDYSEYLDKRAAQDFVK([AEEA-AEEA-γGlu-C18 diacid])WL[Met(O2)]DT-NH2)	> 4.9

Same assay, conditions: ratio of GCGR EC50 to GLP1R EC50

Compound	hGCGR/hGLP1R (hTone)
CC(C)C[C@H](NC(=O)[C@H](Cc1ccc(O)cc1)NC(=O)[C@H](CCCCN)NC(=O)[C@H](CO)NC(=O)[C@H](Cc1ccc(O)cc1)NC(=O)[C@H](CC(=O)O)NC(=O)[C@H](CO)NC(=O)[C@@H](NC(=O)[C@H](Cc1ccccc1)NC(=O)[C@@H](NC(=O)CNC(=O)[C@H](CCC(N)=O)NC(=O)C(C)(C)NC(=O)[C@@H](N)Cc1c[nH]cn1)[C@@H](C)O)[C@@H](C)O)C(=O)N[C@@H](CC(=O)O)C(=O)N[C@@H](C)C(=O)N[C@@H](CCCNC(=N)N)C(=O)N[C@@H](C)C(=O)N[C@@H](C)C(=O)N[C@@H](CCC(N)=O)C(=O)N[C@@H](Cc1ccc(CNC(=O)COCCOCCNC(=O)COCCOCCNC(=O)CC[C@H](NC(=O)CCCCCCCCCCCCCCCCC(=O)O)C(=O)O)cc1)C(=O)N[C@@H](Cc1ccccc1)C(=O)N[C@H](C(=O)N[C@@H](CCC(N)=O)C(=O)N[C@@H](Cc1c[nH]c2ccccc12)C(=O)N[C@@H](CC(C)C)C(=O)N[C@@H](CC(C)C)C(=O)N[C@@](C)(CC(=O)O)C(=O)N[C@H](C(N)=O)[C@@H](C)O)C(C)C [TP609] (H-H[Aib]QGTFTSDYSKYLDARAAQ[Phe(4-CH2NH2)]([AEEA-AEEA-γGlu-C18 diacid])FVQWLL[αMeD]T-NH2; N-terminus assumed)	0.9
CCCCCCCCCCCCCCCc1cn(CCCC[C@H](NC(=O)[C@H](CC(=O)O)NC(=O)[C@H](CO)NC(=O)[C@@H](NC(=O)[C@H](Cc2ccccc2)NC(=O)[C@@H](NC(=O)CNC(=O)[C@H](CCC(N)=O)NC(=O)[C@@H](CO)NC(=O)[C@@H](N)Cc2c[nH]cn2)[C@@H](C)O)[C@@H](C)O)C(=O)N[C@@H](CO)C(=O)N[C@@H](CCCCN)C(=O)N[C@@H](Cc2ccc(O)cc2)C(=O)N[C@@H](CC(C)C)C(=O)N[C@@H](CC(=O)O)C(=O)N[C@@H](C)C(=O)N[C@@H](CCCNC(=N)N)C(=O)N[C@@H](C)C(=O)N[C@@H](C)C(=O)N[C@@H](CCC(N)=O)C(=O)N[C@@H](CC(=O)O)C(=O)N[C@@H](Cc2ccccc2)C(=O)N[C@H](C(=O)N[C@@H](CCC(N)=O)C(=O)N[C@@H](Cc2c[nH]c3ccccc23)C(=O)N[C@@H](CC(C)C)C(=O)N[C@@H](CC(C)C)C(=O)N[C@@H](CC(=O)O)C(=O)N[C@H](C(N)=O)[C@@H](C)O)C(C)C)nn1 [TP829]	1.56
CC(C)C[C@H](NC(=O)[C@H](Cc1ccc(O)cc1)NC(=O)[C@H](CCCCN)NC(=O)[C@H](CO)NC(=O)[C@H](Cc1ccc(O)cc1)NC(=O)[C@H](CC(=O)O)NC(=O)[C@H](CO)NC(=O)[C@@H](NC(=O)[C@H](Cc1ccccc1)NC(=O)[C@@H](NC(=O)CNC(=O)[C@H](CCC(N)=O)NC(=O)C(C)(C)NC(=O)[C@@H](N)Cc1c[nH]cn1)[C@@H](C)O)[C@@H](C)O)C(=O)N[C@@H](CC(=O)O)C(=O)N[C@@H](C)C(=O)N[C@@H](CCCNC(=N)N)C(=O)N[C@@H](C)C(=O)N[C@@H](C)C(=O)N[C@@H](CCCCNC(=O)COCCOCCNC(=O)COCCOCCNC(=O)CC[C@H](NC(=O)CCCCCCCCCCCCCCCCCCC(=O)O)C(=O)O)C(=O)N[C@@H](CC(=O)O)C(=O)N[C@@H](Cc1ccccc1)C(=O)N[C@H](C(=O)N[C@@H](CCC(N)=O)C(=O)N[C@@H](Cc1c[nH]c2ccccc12)C(=O)N[C@@H](CC(C)C)C(=O)N[C@@H](CCS(C)(=O)=O)C(=O)N[C@@](C)(CC(=O)O)C(=O)N[C@H](C(N)=O)[C@@H](C)O)C(C)C [TP565] (H-H[Aib]QGTFTSDYSKYLDARAAK([AEEA-AEEA-γGlu-C20 diacid])DFVQWL[Met(O2)][αMeD]T-NH2; N-terminus assumed)	2.4
CC(C)C[C@H](NC(=O)[C@H](Cc1ccc(O)cc1)NC(=O)[C@H](CCCCN)NC(=O)[C@H](CO)NC(=O)[C@H](Cc1ccc(O)cc1)NC(=O)[C@H](CC(=O)O)NC(=O)[C@H](CO)NC(=O)[C@@H](NC(=O)[C@H](Cc1ccccc1)NC(=O)[C@@H](NC(=O)CNC(=O)[C@H](CCC(N)=O)NC(=O)C(C)(C)NC(=O)[C@@H](N)Cc1c[nH]cn1)[C@@H](C)O)[C@@H](C)O)C(=O)N[C@@H](CC(=O)O)C(=O)N[C@@H](C)C(=O)N[C@@H](CCCNC(=N)N)C(=O)N[C@@H](C)C(=O)N[C@@H](C)C(=O)N[C@@H](CCC(N)=O)C(=O)N[C@@H](CC(=O)O)C(=O)N[C@@H](Cc1ccccc1)C(=O)N[C@H](C(=O)N[C@@H](CCC(N)=O)C(=O)N[C@@H](Cc1c[nH]c2ccccc12)C(=O)N[C@@H](CC(C)C)C(=O)N[C@@H](CCS(C)(=O)=O)C(=O)N[C@@H](Cc1ccc(CNC(=O)COCCOCCNC(=O)COCCOCCNC(=O)CC[C@H](NC(=O)CCCCCCCCCCCCCCCCC(=O)O)C(=O)O)cc1)C(=O)N[C@H](C(N)=O)[C@@H](C)O)C(C)C [TP604] (H-H[Aib]QGTFTSDYSKYLDARAAQDFVQWL[Met(O2)][Phe(4-CH2NH2)]([AEEA-AEEA-γGlu-C18 diacid])T-NH2; N-terminus assumed)	2.3
CC(C)C[C@H](NC(=O)[C@H](CC(C)C)NC(=O)[C@H](Cc1c[nH]c2ccccc12)NC(=O)[C@H](CCC(N)=O)NC(=O)[C@@H](NC(=O)[C@H](Cc1ccccc1)NC(=O)[C@H](CC(=O)O)NC(=O)[C@H](CCC(N)=O)NC(=O)[C@H](C)NC(=O)[C@H](C)NC(=O)[C@H](CCCNC(=N)N)NC(=O)C(C)(C)NC(=O)[C@H](CC(=O)O)NC(=O)[C@H](CC(C)C)NC(=O)[C@H](Cc1ccc(O)cc1)NC(=O)[C@H](CCCCN)NC(=O)[C@H](CO)NC(=O)[C@H](Cc1ccc(CNC(=O)COCCOCCNC(=O)COCCOCCNC(=O)CC[C@H](NC(=O)CCCCCCCCCCCCCCCCCCC(=O)O)C(=O)O)cc1)NC(=O)[C@H](CC(=O)O)NC(=O)[C@H](CO)NC(=O)[C@@H](NC(=O)[C@H](Cc1ccccc1)NC(=O)[C@@H](NC(=O)CNC(=O)[C@H](CCC(N)=O)NC(=O)C(C)(C)NC(=O)[C@@H](N)Cc1c[nH]cn1)[C@@H](C)O)[C@@H](C)O)C(C)C)C(=O)N[C@@H](C)C(=O)N[C@H](C(=O)N[C@@H](CCCCNC(=O)CC[C@H](N)C(=O)O)C(N)=O)[C@@H](C)O [TP581] (H-H[Aib]QGTFTSD[Phe(4-CH2NH2)]([AEEA-AEEA-γGlu-C20 diacid])SKYLD[Aib]RAAQDFVQWLLATK(γGlu)-NH2; N-terminus assumed)	2.9
CC(C)C[C@H](NC(=O)[C@H](Cc1ccc(O)cc1)NC(=O)[C@H](CCCCN)NC(=O)[C@H](CO)NC(=O)[C@H](Cc1ccc(O)cc1)NC(=O)[C@H](CC(=O)O)NC(=O)[C@H](CO)NC(=O)[C@@H](NC(=O)[C@H](Cc1ccccc1)NC(=O)[C@@H](NC(=O)CNC(=O)[C@H](CCC(N)=O)NC(=O)C(C)(C)NC(=O)[C@@H](N)Cc1c[nH]cn1)[C@@H](C)O)[C@@H](C)O)C(=O)N[C@@H](CC(=O)O)C(=O)N[C@@H](C)C(=O)N[C@@H](CCCNC(=N)N)C(=O)N[C@@H](C)C(=O)N[C@@H](C)C(=O)N[C@@H](CCC(N)=O)C(=O)N[C@@H](CCCCNC(=O)CCOCCOCCOCCOCCOCCNC(=O)CC[C@H](NC(=O)CCCCCCCCCCCCCCCCC(=O)O)C(=O)O)C(=O)N[C@@H](Cc1ccccc1)C(=O)N[C@H](C(=O)N[C@@H](CCC(N)=O)C(=O)N[C@@H](Cc1c[nH]c2ccccc12)C(=O)N[C@@H](CC(C)C)C(=O)N[C@@H](CCS(C)(=O)=O)C(=O)N[C@@](C)(CC(=O)O)C(=O)N[C@H](C(N)=O)[C@@H](C)O)C(C)C [TP608] (H-H[Aib]QGTFTSDYSKYLDARAAQK([PEG5-γGlu-C18 diacid])FVQWL[Met(O2)][αMeD]T-NH2)	0.9
